Earlier results as cited in EP4628546A1, “CYANINE DIMERS FOR PHOTOTHERMAL TREATMENT OF CANCER GUIDED BY FLUORESCENCE/PHOTOACOUSTIC IMAGING” (Centre National de la Recherche Scientifique, priority 2024, dated 2025).

Conditions: IR 780 in EtOH, reference value

Question: For CCCN1/C(=C/C=C2\CCCC(/C=C/C3=[N+](CCC)c4ccccc4C3(C)C)=C2Cl)C(C)(C)c2ccccc21.[I-] [IR 780], which “Φfluo,ref” value is on record?
Answer: 0.08
